# Measured values taken from US12048761B2, “Methods and pharmaceutical compositions for the treatment of retinal capillary non-perfusion” (INSERM (INSTITUT NATIONAL DE LA SANTÉ ET DE LA RECHERCHE …, priority 2015, dated 2024).
# Entries after “also recorded” stand apart in the source; their conditions may differ.
# Key:
# [1] = system: ROCK; test: ROCK Activity Immunoblot Kit: phosphorylation of recombinant MYPT1 by RPE/choroid samples of treated GK rats; assay type: in vivo, rat; settings: GK diabetic rats, 3 intravitreous injections of 20 μM, vs vehicle
# Method: We used a ROCK Activity Immunoblot Kit (Cell Biolabs, San Diego, CA, USA) that utilizes recombinant MYPT1 as a ROCK substrate. ROCK inactivates myosin phosphatase through a specific phosphorylation of myosin phosphatase target subunit 1 (MYPT1) at Thr696, which results in an increase in the phosphorylated content of the 20-kDa myosin light chain. (MLC20) After incubating the substrate (recombinant MYPT1) with RPE/choroid samples, the phosphorylated MYPT1 was detected by western blot analysis using an anti-phospho-MYPT1 (Thr696). In brief, RPE/choroid protein samples were diluted in 1× Kinase buffer. 25 μL (75 μg of proteins) was added in microcentrifuge tubes and the initiation of kinase reaction was performed by adding 50 μL of 1× Kinase/ATP/Substrate Solution. The microcentrifuge tubes were then incubated at 30° C. for 30-60 minutes with gentle agitation. Then the kinase reaction was stopped by adding 25 μL of 4× reducing SDS-PAGE sample buffer. […] Inhibition of ROCK activity was evaluated by western blotting and quantified.
# [2] = system: ROCK-1; test: Western blotting of ROCK1 protein level in RPE; assay type: in vivo, rat; settings: GK diabetic rats, 3 intravitreous injections of 20 μM, vs vehicle injected eyes, n=6
# Method: (§2) For intravitreous injections, diabetic rats were anesthetized with an intraperitoneal injection of pentobarbital (40 mg/kg Nembutal, Abbot, Saint-Remy sur Avre, France) and pupils were dilated with a topically applied drop of 5% tropicamide (Ciba Vision, Toulouse, France), and locally anesthetized with a drop of 1% tetracaine (Ciba Vision). Three consecutive injections, of Fasudil at a concentration of 20 M or vehicle were performed, at 48 hours interval under a surgical microscope, using a 30-gauge needle (Microfine: Becton Dickinson, Meylan, France as described previously [29-31]). Animals were sacrificed 48 hours following the administration of 3 intra-vitreous injections of 20 μM of Fasudil, each injection was 2 days apart.
# RPE/choroid and neural retina were homogenized in a lysis buffer (50 mM Mops, 50 mM Trisbase, 0.1%, SDS 1 mM EDTA PH 7.7) containing a protease inhibitor cocktail (Roche, France). Protein concentration was determined using a (Pierce BCA protein assay kit Thermo Scientific Rockford USA) (20-40 μg) were subjected to SDS-PAGE on Nupage 4-12% Bis-Tris gel electrophoresis, and electroblotted onto nitrocellulose membranes (Optitran BA-S 83 GE Healthcare Life Science Whatman). Membranes were incubated with primary antibodies.
# [3] = system: p-MLC; test: Western blotting of p-MLC protein level in RPE; assay type: in vivo, rat; settings: GK diabetic rats, 3 intravitreous injections of 20 μM, vs vehicle
# Method: (§1) For intravitreous injections, diabetic rats were anesthetized with an intraperitoneal injection of pentobarbital (40 mg/kg Nembutal, Abbot, Saint-Remy sur Avre, France) and pupils were dilated with a topically applied drop of 5% tropicamide (Ciba Vision, Toulouse, France), and locally anesthetized with a drop of 1% tetracaine (Ciba Vision). Three consecutive injections, of Fasudil at a concentration of 20 µM or vehicle were performed, at 48 hours interval under a surgical microscope, using a 30-gauge needle (Microfine: Becton Dickinson, Meylan, France as described previously). […] Protein concentration was determined using a (Pierce BCA protein assay kit Thermo Scientific Rockford USA) (20-40 μg) were subjected to SDS-PAGE on Nupage 4-12% Bis-Tris gel electrophoresis, and electroblotted onto nitrocellulose membranes (Optitran BA-S 83 GE Healthcare Life Science Whatman). […] Then, membranes were incubated with the corresponding peroxidase-conjugated F(ab)2 fragment (Santa cruz Biotechnology Inc, Santa Cruz, CA, USA (dilution 1:5000) secondary antibodies. Immunoreactive bands were detected with the ECL Western blotting Detection Reagents Kit (Thermo Scientific Rockford USA). The relative abundance of individual proteins identified was quantified by scanning densitometry. The list of antibodies used for western-blots are provided in Table 2.
# [4] = system: ROCK1/P-MLC; test: Immunolocalization of ROCK1 and P-MLC on RPE cell flatmounts; assay type: in vivo, rat; settings: GK diabetic rats, 3 intravitreous injections of 20 μM
# Method: as §2
# For flatmounts, after enucleation, ocular globes were fixed in 4% paraformaldehyde (PFA) for 15 min at room temperature and sectioned at the limbus; anterior segments were discarded. Neural retinas and RPE/choroids were fixed separately for additional 15 min in acetone at −20° C. Specimens were then incubated overnight at 4° C. with primary antibodies diluted in PBS supplemented with 10% foetal calf serum (FCS) and 0.1% Triton X-100. Immunohistochemistry was repeated at least 7 times on 7 different animals for each group.
# [5] = system: RPE cells; test: Quantitative analysis of RPE cell layer morphology on RPE flat-mounts; assay type: in vivo, rat; settings: Fasudil vs vehicle
# Method: For intravitreous injections, diabetic rats were anesthetized with an intraperitoneal injection of pentobarbital (40 mg/kg Nembutal, Abbot, Saint-Remy sur Avre, France) and pupils were dilated with a topically applied drop of 5% tropicamide (Ciba Vision, Toulouse, France), and locally anesthetized with a drop of 1% tetracaine (Ciba Vision). Three consecutive injections, of Fasudil at a concentration of 20 µM or vehicle were performed, at 48 hours interval under a surgical microscope, using a 30-gauge needle (Microfine: Becton Dickinson, Meylan, France as described previously). Animals were sacrificed 48 hours following the administration of 3 intra-vitreous injections of 20 μM of Fasudil, each injection was 2 days apart. To analyse RPE flat-mounts and in order to assess the cell morphology. an ImageJ [32] macro tool was created in Fiji. Briefly, after a first image processing by FFT band pass filtering, images were converted into binary format and masked and then processed to obtain a skeleton image (isolated segments and loops were removed). This image was inverted and the cells segmented and labelled with the “particle analysis” tool in ImageJ, the Regions of Interest (ROI) were delimited using ROI Manager tool. The number of vertices for each cell was measured following detection of triple points (points were three branches are joined together) with the appropriate binary “hit or miss” transformation. For this transformation, the ImageJ plugin “morphology” was used. By removing those points from the skeleton image, the number of individual edges was counted as well as their length. The number of vertices was then verified and manually corrected for errors. Images with more than 5% automatic alignment errors were eliminated from analysis. Following this several morphological parameters were then measured for each cell e.g. area, perimeter, circularity, number of neighbours/vertices/edges of a cell etc. […]
# [6] = system: outer retinal barrier (RPE); test: Blood-retinal barrier breakdown using intravenous injection of 150 KDa FITC-dextran; assay type: in vivo, rat
# Method: For intravitreous injections, diabetic rats were anesthetized with an intraperitoneal injection of pentobarbital (40 mg/kg Nembutal, Abbot, Saint-Remy sur Avre, France) and pupils were dilated with a topically applied drop of 5% tropicamide (Ciba Vision, Toulouse, France), and locally anesthetized with a drop of 1% tetracaine (Ciba Vision). Three consecutive injections, of Fasudil at a concentration of 20 µM or vehicle were performed, at 48 hours interval under a surgical microscope, using a 30-gauge needle (Microfine: Becton Dickinson, Meylan, France as described previously). Animals were sacrificed 48 hours following the administration of 3 intra-vitreous injections of 20 μM of Fasudil, each injection was 2 days apart. To assess blood retinal barrier breakdown, 200 μl of 150 KDa FITC-dextran at 50 mg/ml in PBS (Sigma) was injected intravenously in the tail of rats treated by Fasudil or vehicle (n=5), 2 hours prior killing. Leakage of FITC-dextran was evaluated by measuring fluorescence within the retina using imageJ software as previously described by others. Cryosections (10 μm) of Fasudil and vehicles injected rats retina were randomly imaged (10 images at 40× magnification per animal) and analysed.
# [7] = system: retinal capillary network; test: Quantitative assessment of the retinal microangiopathy: lectin-labelled capillary surface on flat-mounted retina; assay type: in vivo, rat; settings: GK rats, n=4 Fasudil and n=5 vehicle, p<0.05
# Method: For intravitreous injections, diabetic rats were anesthetized with an intraperitoneal injection of pentobarbital (40 mg/kg Nembutal, Abbot, Saint-Remy sur Avre, France) and pupils were dilated with a topically applied drop of 5% tropicamide (Ciba Vision, Toulouse, France), and locally anesthetized with a drop of 1% tetracaine (Ciba Vision). Three consecutive injections, of Fasudil at a concentration of 20 µM or vehicle were performed, at 48 hours interval under a surgical microscope, using a 30-gauge needle (Microfine: Becton Dickinson, Meylan, France as described previously). Animals were sacrificed 48 hours following the administration of 3 intra-vitreous injections of 20 μM of Fasudil, each injection was 2 days apart. To quantify the area of large and small blood vessels on flat mounted retina, an ImageJ macro was created in Fiji. Briefly, the local thickness function available with the Fiji plugin for ImageJ software was used to create a map of the blood vessels, from which diameter of the local structures could be evaluated. This map was thresholded to define two binary masks corresponding to the vessels of large diameter (local thickness>threshold) and the vessels of small diameter (local thickness<threshold). The area of those masks was then measured and expressed in terms of the surface area occupied by the small vessels.
# [8] = system: VEGF; test: VEGF western blot in neural retina and VEGF immunostaining on retinal flatmounts; assay type: in vivo, rat; settings: GK rats, Fasudil vs vehicle, n=8/group, western blot (VEGF-164, neural retina)
# Method: as §1
# [9] = system: retinal vessels; test: In vivo imaging of retinal vessels using confocal angiography; design: species or system rat; settings: GK rats, intravitreal fasudil, p<0.05
# Method: For intravitreous injections, diabetic rats were anesthetized with an intraperitoneal injection of pentobarbital (40 mg/kg Nembutal, Abbot, Saint-Remy sur Avre, France) and pupils were dilated with a topically applied drop of 5% tropicamide (Ciba Vision, Toulouse, France), and locally anesthetized with a drop of 1% tetracaine (Ciba Vision). Three consecutive injections, of Fasudil at a concentration of 20 µM or vehicle were performed, at 48 hours interval under a surgical microscope, using a 30-gauge needle (Microfine: Becton Dickinson, Meylan, France as described previously). Animals were sacrificed 48 hours following the administration of 3 intra-vitreous injections of 20 μM of Fasudil, each injection was 2 days apart.
# [10] = system: ROCK; settings: cited from earlier work
Compound,phosphorylated MYTP1 in the RPE (ROCK-1 activity) [1],total ROCK-1 in the RPE [2],phosphorylated MLC in the RPE [3],localization of ROCK1/P-MLC in RPE cells [4],"frequency of normal size RPE cells ([5]; GK retina, p<0.001)","frequency of small RPE cells (<200 μm2) ([5]; GK retina, p<0.001)","distribution of RPE cell area ([5]; WS (non-diabetic Wistar) retina, ANOVA p=0.17)","RPE barrier on histological sections ([6]; GK eyes, Fasudil treated)","vessel leakage (neural retina corrected total fluorescence) ([6]; GK eyes, Fasudil vs vehicle, n=5-6, p<0.01)","passage of 150 KDa FITC-dextran across the RPE barrier ([6]; GK rats, 2 hours after intravenous FITC-dextran, qualitative on cryosections)",capillary density (% of surface coverage by small vessels) [7],VEGF levels in retina [8],vasodilation of retinal vessels (vascular diameter before and after treatment) [9],affinity to ROCK relative to Fasudil [10]
"O=S(=O)(c1cccc2cnccc12)N1CCCNCC1 [Fasudil, hexahydro-1-(5-isoquinolylsulfonyl)-1H-1,4-di-azepime]",significant reduction,not significantly decreased,significant reduction,relocation of ROCK1/P-MLC from the membrane into the cytoplasm,increase frequency of normal size cells,significantly less small cells; also recorded: reduction in the frequency of small cells,no difference in distribution of cell area,intact RPE barrier,significant reduction in vessel leakage,did not cross the RPE barrier,significantly increased,significant decrease,significant effect of fasudil on retinal vessel diameter; also recorded: significant vasodilation,
O=c1[nH]ccc2c(S(=O)(=O)N3CCCNCC3)cccc12 [Hydroxyfasudil],,,,,,,,,,,,,,higher affinity
